Experimental data from PubChem BioAssay (NCI).
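These data come from cells grown in 96-well plates and exposed to compound for 48 hours at five concentrations. The concentration for 50% growth inhibition is given as GI50. TGI: concentration producing complete growth inhibition.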

Tests used:
Experiment in all cases: NCI anticancer screen, dose series, 48 h
[1] = tested on: 786-0 renal
[2] = tested on: A498 renal
[3] = tested on: A549 NSCLC
[4] = tested on: ACHN renal
[5] = tested on: BT-549 breast
[6] = tested on: CAKI-1 renal
[7] = tested on: CCRF-CEM leukemia
[8] = tested on: COLO 205 colon
[9] = tested on: DU-145 prostate
[10] = tested on: EKVX NSCLC
[11] = tested on: HCC-2998 colon
[12] = tested on: HCT-116 colon
[13] = tested on: HCT-15 colon
[14] = tested on: HL-60(TB) leukemia
[15] = tested on: HOP-62 NSCLC
[16] = tested on: HOP-92 NSCLC
[17] = tested on: HS 578T breast
[18] = tested on: HT29 colon
[19] = tested on: IGROV1 ovarian
[20] = tested on: K-562 leukemia
[21] = tested on: KM12 colon
[22] = tested on: LOX IMVI melanoma
[23] = tested on: M14 melanoma
[24] = tested on: MALME-3M melanoma
[25] = tested on: MCF7 breast
[26] = tested on: MDA-MB-231 breast
[27] = tested on: MDA-MB-435
[28] = tested on: MOLT-4 leukemia
[29] = tested on: NCI-H226 lung
[30] = tested on: NCI-H23 lung
[31] = tested on: NCI-H460 lung
[32] = tested on: NCI-H522 lung
[33] = tested on: NCI/ADR-RES ovarian
[34] = tested on: OVCAR-3 ovarian
[35] = tested on: OVCAR-4 ovarian
[36] = tested on: OVCAR-5 ovarian
[37] = tested on: OVCAR-8 ovarian
[38] = tested on: PC-3 prostate
[39] = tested on: RPMI-8226 leukemia
[40] = tested on: SF-295 CNS
[41] = tested on: SF-539 CNS
[42] = tested on: SK-MEL-2 melanoma
[43] = tested on: SK-MEL-28 melanoma
[44] = tested on: SK-MEL-5 melanoma
[45] = tested on: SK-OV-3 ovarian
[46] = tested on: SN12C renal
[47] = tested on: SNB-19 CNS
[48] = tested on: SNB-75 CNS
[49] = tested on: SR leukemia
[50] = tested on: SW-620 colon
[51] = tested on: T-47D breast
[52] = tested on: TK-10 renal
[53] = tested on: U251 CNS
[54] = tested on: UACC-257 melanoma
[55] = tested on: UACC-62 melanoma
[56] = tested on: UO-31 renal
[57] = tested on: SF-268 CNS

## COc1ccc(CN(Cc2ccc(OC)cc2)C(=O)CC2(O)CCc3ccccc3C2)cc1 (stereo not given)
[1]
  TGI: > 100 µM
[2]
  TGI: > 100 µM
[3]
  TGI: > 100 µM
[4]
  TGI: > 100 µM
[5]
  TGI: > 100 µM
[6]
  TGI: > 100 µM
[7]
  TGI: > 100 µM
[8]
  TGI: 57.4 µM
[9]
  TGI: > 100 µM
[10]
  TGI: > 100 µM
[11]
  TGI: > 100 µM
[12]
  TGI: > 100 µM
[13]
  TGI: > 100 µM
[14]
  TGI: 80.1 µM
[15]
  TGI: > 100 µM
[16]
  TGI: > 100 µM
[17]
  TGI: > 100 µM
[18]
  TGI: > 100 µM
[19]
  TGI: > 100 µM
[20]
  TGI: > 100 µM
[21]
  TGI: > 100 µM
[22]
  TGI: > 100 µM
[23]
  TGI: > 100 µM
[24]
  TGI: > 100 µM
[25]
  TGI: > 100 µM
[26]
  TGI: > 100 µM
[27]
  TGI: > 100 µM
[28]
  TGI: 56 µM
[29]
  TGI: > 100 µM
[30]
  TGI: > 100 µM
[31]
  TGI: > 100 µM
[32]
  TGI: > 100 µM
[33]
  TGI: > 100 µM
[34]
  TGI: > 100 µM
[35]
  TGI: > 100 µM
[36]
  TGI: > 100 µM
[37]
  TGI: > 100 µM
[38]
  TGI: > 100 µM
[39]
  TGI: > 100 µM
[40]
  TGI: > 100 µM
[41]
  TGI: > 100 µM
[42]
  TGI: > 100 µM
[43]
  TGI: > 100 µM
[44]
  TGI: > 100 µM
[45]
  TGI: > 100 µM
[46]
  TGI: > 100 µM
[47]
  TGI: > 100 µM
[48]
  TGI: > 100 µM
[49]
  TGI: > 100 µM
[50]
  TGI: > 100 µM
[51]
  TGI: > 100 µM
[52]
  TGI: > 100 µM
[53]
  TGI: > 100 µM
[54]
  TGI: > 100 µM
[55]
  TGI: > 100 µM
[56]
  TGI: > 100 µM

## COc1cc(O)c2c3c(ccnc13)-c1ccccc1N2
[1]
  GI50: 12.3 µM
  TGI: > 100 µM
[2]
  GI50: 22.4 µM
  TGI: 42.2 µM
[3]
  GI50: 2.37 µM
  TGI: > 100 µM
[4]
  GI50: 3.02 µM
  TGI: 77.9 µM
[5]
  GI50: 15.4 µM
  TGI: 60.2 µM
[6]
  GI50: 12.8 µM
  TGI: 47.4 µM
[7]
  GI50: 7.36 µM
  TGI: > 100 µM
[8]
  GI50: 6.23 µM
  TGI: > 100 µM
[9]
  GI50: 2.77 µM
  TGI: 35.7 µM
[10]
  GI50: 14.9 µM
  TGI: 51.3 µM
[11]
  GI50: 4.39 µM
  TGI: 12.3 µM
[12]
  GI50: 2.4 µM
  TGI: > 100 µM
[13]
  GI50: 2.35 µM
  TGI: 29.1 µM
[14]
  GI50: 21.8 µM
  TGI: > 100 µM
[15]
  GI50: 10.4 µM
  TGI: > 100 µM
[16]
  GI50: 24.7 µM
  TGI: > 100 µM
[17]
  GI50: 15.5 µM
  TGI: 92.8 µM
[18]
  GI50: 5.11 µM
  TGI: > 100 µM
[19]
  GI50: 10.8 µM
  TGI: > 100 µM
[20]
  GI50: 28.1 µM
  TGI: > 100 µM
[21]
  GI50: 5.06 µM
  TGI: 64.5 µM
[22]
  GI50: 3.2 µM
  TGI: 31.7 µM
[23]
  GI50: 1.69 µM
  TGI: 7.95 µM
[24]
  GI50: 14.9 µM
  TGI: 46.5 µM
[25]
  GI50: 2.01 µM
  TGI: 8.59 µM
[26]
  GI50: 5.19 µM
  TGI: 71.9 µM
[27]
  GI50: 1.9 µM
  TGI: 3.66 µM
[28]
  GI50: 21.2 µM
  TGI: > 100 µM
[29]
  GI50: 18.6 µM
  TGI: 91.9 µM
[30]
  GI50: 20.5 µM
  TGI: > 100 µM
[31]
  GI50: 2.69 µM
  TGI: > 100 µM
[32]
  GI50: 9.34 µM
  TGI: 60 µM
[33]
  GI50: 9.25 µM
  TGI: 92.7 µM
[34]
  GI50: 2.01 µM
  TGI: 5.96 µM
[35]
  GI50: 2.85 µM
  TGI: 25.1 µM
[36]
  GI50: 25.3 µM
  TGI: > 100 µM
[37]
  GI50: 4.87 µM
  TGI: > 100 µM
[38]
  GI50: 5.61 µM
  TGI: > 100 µM
[39]
  GI50: 3.93 µM
  TGI: > 100 µM
[57]
  GI50: 8.63 µM
  TGI: 98.9 µM
[40]
  GI50: 5.9 µM
  TGI: 53.7 µM
[41]
  GI50: 3.33 µM
  TGI: 10.8 µM
[42]
  GI50: 21.8 µM
  TGI: 61.5 µM
[43]
  GI50: 21.1 µM
  TGI: 72.8 µM
[44]
  GI50: 2.73 µM
  TGI: 12.5 µM
[45]
  GI50: 28.5 µM
  TGI: > 100 µM
[46]
  GI50: 5.42 µM
  TGI: 20 µM
[47]
  GI50: 4.86 µM
  TGI: 49.2 µM
[48]
  GI50: 17 µM
  TGI: > 100 µM
[49]
  GI50: 0.488 µM
  TGI: > 100 µM
[50]
  GI50: 2.63 µM
  TGI: > 100 µM
[51]
  GI50: 8.32 µM
  TGI: > 100 µM
[52]
  GI50: 33.2 µM
  TGI: 85.9 µM
[53]
  GI50: 6.07 µM
  TGI: 79.6 µM
[54]
  GI50: 5.71 µM
  TGI: > 100 µM
[55]
  GI50: 4.33 µM
  TGI: 17.1 µM
[56]
  GI50: 18.8 µM
  TGI: > 100 µM
